Measured values: PMC8750417, “Intracellular Amplifiers of Reactive Oxygen Species Affecting Mitochondria as Radiosensitizers” (Cancers, 2021)

Experiments:
Jurkat cells = assay: Total intracellular ROS (CM-DCFH-DA), Jurkat; type: cell-based, human; conditions: 1 h
Protocol: Monitoring total intracellular ROS (tROS)
A2780 cells were seeded in RPMI 1640 medium containing 5% FBS, 1% L-glutamine and 1% penicillin/streptomycin in a 24-well microtiter plate (total volume 0.5 mL) at a density of 200 cells/µL one day before the experiment. On the day of the experiment, the cells were washed twice with DPBS buffer and the medium was replaced with HBSS (Hanks' Balanced Salt solution, 500 μL). CM-DCFH-DA (5-(6-)chloromethyl-2',7'- dichlorodihydrofluorescein diacetate, Thermo- Fisher) solution (0.1 mM in DMSO, 5 μL) was added (final concentration 1 µM) and the cells were incubated in the dark chamber filled with CO2 (5%) at 37 °C for 15 min. […] Finally, the fluorescence of live cells (λex = 488 nm, λem = 525 nm) in the suspensions was determined by using flow cytometry (Figure 4A, 5C).
Intracellular ROS release in Jurkat cells was monitored analogously (Figure S58).
Figure S58. […] OY-axis “Fluorescence”: the increase of the mean fluorescence (λex = 488 […]

[1] = test system: chronic lymphocytic leukemia (CLL) cells; assay: Viability of primary CLL cells (CellTiter Glo); type: cell-based, human; conditions: 48 h
Source text: Determination of viability of primary cancer (CLL) and normal (MNC) cells in the […]
Clinical samples from chronic lymphocytic leukemia (CLL) patients (N=6, CLL cells) and healthy donors (N=6; peripheral blood mononuclear cells, MNCs) were collected at the University Hospital Heidelberg, Germany. Informed consent was obtained in accordance with the Declaration of Helsinki. Sample collection and analysis was approved by the ethics committee of the University of Heidelberg (S-254/2016). Blood was separated by a Ficoll gradient (GE Healthcarey), and cells were cryopreserved. Drug sensitivity screening was performed in 384-well format (Greiner Bio One) with 10 different prodrug […]
4x10^4 cells per well. Cells were cultured in RPMI-1640 (Invitrogen) supplemented with penicillin/streptomycin (Invitrogen), L-glutamine (Invitrogen) and 10% pooled and heat inactivated AB-type human serum (Sigma-Aldrich). Cell viability was assessed by quantification of ATP (CellTiter Glo®, Promega) 48 hours after drug application.
Luminescence was measured on a Tecan Infinite F200 Microplate Reader. Viability was calculated as % of solvent (DMSO) treated control. Representative plots of cell viability

In the case of `CC1(C)OB(c2ccc(COC(=O)N(Cc3cn(Cc4ccc(Cn5cc(Cc6ccccc6)nn5)cc4)nn3)[c-]3cccc3)cc2)OC1(C)C.[Fe+2].c1cc[cH-]c1` [2c], the “total ROS (tROS) vs background” value (Jurkat cells) is reported as “significantly higher than its background levels”, the IC50 ([1]; primary CLL cells from six patients) is reported as 6 ± 2 µM and the “cancer cell specificity, primary CLL cells vs MNCs” value ([1]; viability of CLL vs MNC, for 2c at 3.3 and 10 µM) is reported as “significantly more toxic in the cancer cells than in the normal cells”.
